# Measurements from BindingDB's records for doi:10.1007/s10822-022-00478-x (Roche Innovation Center Basel, F. Hoffmann-La Roche Ltd., 2022).
# Biological target: cAMP and cAMP-inhibited cGMP 3',5'-cyclic phosphodiesterase 10A (Homo sapiens, UniProt Q9Y233)
# Assay: PDE10A assay
# Outline: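 Scintillation proximity readout of [3H]cGMP hydrolysis (50 nM final substrate, 15 min) by 2 ng/well human PDE10A after 15 min compound preincubation at RT, pH 7.5 with MgCl2. Four-parameter logistic fit gave IC50, reported as pIC50.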
row,IC50 [nM],Compound
1,4170,"Cn1nc(N2CCCC2)nc1CCc1nc2cnc(C#N)cn2n1 [Roche-Dataset for PDE10A, Compound 500]"
2,359,"CCOC(=O)c1cnn(C)c1C(=O)Nc1ccn2nc(N(C)CC)nc2c1 [Roche-Dataset for PDE10A, Compound 502]"
3,0.87,"O=C(Nc1ccnn1-c1ccccc1)c1nc(C2CC2)ccc1Nc1cncnc1 [Roche-Dataset for PDE10A, Compound 507]"
4,30,"O=C(Nc1cnccc1C(=O)N1CC(F)(F)C1)c1nc(C2CC2)ccc1Nc1cncnc1 [Roche-Dataset for PDE10A, Compound 508]"
5,472,"Cc1c(Cl)ccc2nc(CCc3nc4ccc(Cl)c(C)n4n3)nn12 [Roche-Dataset for PDE10A, Compound 512]"
6,20,"CN(C)c1nc2cc(NC(=O)c3c(C(=O)N4CC(F)C4)cnn3C)ccn2n1 [Roche-Dataset for PDE10A, Compound 513]"
7,17,"COc1ncc(C2CC2)nc1C(=O)Nc1ccn2nc(-c3ccccc3)nc2c1 [Roche-Dataset for PDE10A, Compound 514]"
8,767,"Cc1ncc(C)n2nc(CCc3nc(N4CCNCC4)nn3C)nc12 [Roche-Dataset for PDE10A, Compound 515]"
9,1030,"O=C(Nc1ccn2nc(-c3ccccc3)nc2c1)c1cnc(Cl)c(Cl)c1 [Roche-Dataset for PDE10A, Compound 518]"
10,1360,"CSc1ncc(Nc2cncnc2)c(C(=O)Nc2cc(-c3ccccn3)nn2C)n1 [Roche-Dataset for PDE10A, Compound 519]"
11,2.77,"CN(C)c1nc2cc(NC(=O)c3c(C(=O)N4CCC4)cnn3C)ccn2n1 [Roche-Dataset for PDE10A, Compound 520]"
12,17,"Cc1c(Cl)cc(Cl)c2nc(CCc3nc(N4CCCC4)no3)nn12 [Roche-Dataset for PDE10A, Compound 521]"
13,10,"O=C(Nc1ccc2cc(-c3ccccc3)nn2c1)c1onc2ccc(Br)cc12 [Roche-Dataset for PDE10A, Compound 523]"
14,858,"Cc1ncc(C)n2nc(CCc3nc(N4CC5CC4C5)nn3C)nc12 [Roche-Dataset for PDE10A, Compound 524]"
15,111,"CNC(=O)c1cc2[nH]c(-c3ccccc3)nc2cc1NC(=O)c1ccn(C)n1 [Roche-Dataset for PDE10A, Compound 526]"
16,18,"Cc1noc(C(=O)Nc2ccc3cc(-c4ccccc4)nn3c2)c1Br [Roche-Dataset for PDE10A, Compound 529]"
17,195,"CNC(=O)c1nn(C)cc1NC(=O)c1ccc2cc(-c3ccccc3)nn2c1 [Roche-Dataset for PDE10A, Compound 532]"
18,29,"CCn1nc(CCc2nc3c(C)ncc(C)n3n2)nc1N1CCCC1 [Roche-Dataset for PDE10A, Compound 533]"
19,7.96,"Cn1nc(-c2ccccn2)cc1NC(=O)c1c(C(=O)N2CCC2)cnn1C [Roche-Dataset for PDE10A, Compound 535]"
20,12,"O=C(Nc1ccn([C@]23C[C@H]4C[C@H](C[C@H](C4)C2)C3)n1)c1nc(C2CC2)ccc1Nc1cncnc1 [Roche-Dataset for PDE10A, Compound 537]"
21,5.06,"Cc1ccc2nc(Cl)c(OCc3nc(-c4ccccc4)cn3C)nc2c1 [Roche-Dataset for PDE10A, Compound 540]"
22,92,"Cc1cc(Nc2cncnc2)cc(C(=O)Nc2cc(-c3ccccn3)nn2C)n1 [Roche-Dataset for PDE10A, Compound 542]"

row,IC50 [nM],Compound
1,2310,"Cn1cc(-c2ccccc2)nc1/C=C/c1cc(Cl)nc(Cl)n1 [Roche-Dataset for PDE10A, Compound 543]"
2,20,"O=C(Nc1ccc(-n2ccccc2=O)cc1)c1nc(C2CC2)ccc1Nc1cncnc1 [Roche-Dataset for PDE10A, Compound 545]"
3,392,"CN1CCN(c2nc3cc(NC(=O)c4c(C(=O)N5CCC5)cnn4C)ccc3s2)CC1 [Roche-Dataset for PDE10A, Compound 546]"
4,10000,"Cn1nc(-c2ccccn2)cc1NC(=O)c1cc(C(F)(F)F)ncc1Br [Roche-Dataset for PDE10A, Compound 547]"
5,9.76,"Cc1cccc(-c2cc(NC(=O)c3c(C(=O)N4CCC4)cnn3C)n[nH]2)n1 [Roche-Dataset for PDE10A, Compound 548]"
6,314,"CCOC(=O)c1cnn(C)c1C(=O)Nc1ccn2nc(N(C)C)nc2c1 [Roche-Dataset for PDE10A, Compound 549]"
7,188,"Cn1nc(N2CCCC2)nc1/C=C/c1nc(N2CCCC2)nn1C [Roche-Dataset for PDE10A, Compound 550]"
8,6.79,"O=C(Nc1ccccc1)c1cccc(NC(=O)c2nc(C3CC3)ccc2Nc2cncnc2)c1 [Roche-Dataset for PDE10A, Compound 556]"
9,189,"CNC(=O)c1cc2[nH]c(-c3ccccc3)nc2cc1NC(=O)c1cc(C)on1 [Roche-Dataset for PDE10A, Compound 557]"
10,944,"CNC(=O)c1cc2[nH]c(-c3ccccc3)nc2cc1NC(=O)c1cc(C)nn1C(C)(C)C [Roche-Dataset for PDE10A, Compound 558]"
11,24,"Cc1ncc(C)n2nc(/C=C/c3nc(N4CC[C@@H](C)C4)nn3C)nc12 [Roche-Dataset for PDE10A, Compound 560]"
12,320,"C[C@@H](NC(=O)c1ccc(NC(=O)c2nc(C3CC3)ccc2Nc2cncnc2)s1)c1ccccc1 [Roche-Dataset for PDE10A, Compound 563]"
13,45,"Cc1ncc(C)n2nc(/C=C/c3nc(N4CC[C@H](C)C4)nn3C)nc12 [Roche-Dataset for PDE10A, Compound 566]"
14,39,"CN(C)c1nc2cc(NC(=O)c3c(C(=O)N4CCOCC4)cnn3C)ccn2n1 [Roche-Dataset for PDE10A, Compound 568]"
15,300,"NS(=O)(=O)c1ccc(CCNC(=O)c2nc(C3CC3)cnc2Nc2cncnc2)cc1 [Roche-Dataset for PDE10A, Compound 569]"
16,11900,"O=C1c2ccccc2C(=O)N1CCc1nc(-c2ccncc2)no1 [Roche-Dataset for PDE10A, Compound 570]"
17,35,"CC(=O)Nc1cccc(NC(=O)c2nc(C3CC3)cnc2Nc2cncnc2)c1 [Roche-Dataset for PDE10A, Compound 571]"
18,281,"CN(C)c1nc(/C=C/c2cccc(Br)n2)nc2ccc(Cl)cc12 [Roche-Dataset for PDE10A, Compound 574]"
19,74,"CNC(=O)c1cc(NC(=O)c2nc(C3CC3)ccc2Nc2cncnc2)n(C)n1 [Roche-Dataset for PDE10A, Compound 576]"
20,16400,"O=C1c2ccccc2C(=O)N1CCc1nc(-c2cccnc2)no1 [Roche-Dataset for PDE10A, Compound 579]"
21,5.65,"O=C(Nc1ccn(C2CCCC2)n1)c1nc(C2CC2)ccc1Nc1cncnc1 [Roche-Dataset for PDE10A, Compound 580]"
22,10000,"CN(CCNC(=O)c1nc(C2CC2)cnc1Nc1cncnc1)C(=O)c1ccccn1 [Roche-Dataset for PDE10A, Compound 581]"

row,IC50 [nM],Compound
1,72,"Cc1c(Cl)cc(Cl)c2nc(CCc3nncn3-c3ccccc3)nn12 [Roche-Dataset for PDE10A, Compound 582]"
2,2.86,"CCc1cnc(C)n2nc(CCc3nc(N4CCCC4)nn3C)nc12 [Roche-Dataset for PDE10A, Compound 584]"
3,423,"CN(C)c1nc(OCc2cc3ccccn3n2)nc2ccc(Cl)cc12 [Roche-Dataset for PDE10A, Compound 586]"
4,4.05,"Cc1nc2cc(Cl)ccc2nc1OCc1nc(-c2ccccc2)cn1C [Roche-Dataset for PDE10A, Compound 587]"
5,1520,"O=C(NCCC(=O)N1CCOCC1)c1nc(C2CC2)cnc1Nc1cncnc1 [Roche-Dataset for PDE10A, Compound 591]"
6,10,"O=C(Nc1ccn2nc(-c3ccccc3)nc2c1)c1onc2ccc(Br)cc12 [Roche-Dataset for PDE10A, Compound 592]"
7,23,"O=C(Nc1ccn(CC2CC2)n1)c1nc(C2CC2)ccc1Nc1cncnc1 [Roche-Dataset for PDE10A, Compound 593]"
8,326,"Cc1ncc(C)n2nc(/C=C/c3nc(N4CCCC4)cn3C)nc12 [Roche-Dataset for PDE10A, Compound 596]"
9,50,"O=C(Nc1ccn(CCO)n1)c1nc(C2CC2)ccc1Nc1cncnc1 [Roche-Dataset for PDE10A, Compound 597]"
10,9.77,"Cn1cc(-c2ccccc2)nc1COc1cnc2cc(Cl)ccc2n1 [Roche-Dataset for PDE10A, Compound 598]"
11,1130,"CCc1nc(CNC(=O)c2cnn(C)c2C(=O)Nc2ccn3cc(-c4ccccc4)nc3n2)cs1 [Roche-Dataset for PDE10A, Compound 601]"
12,26,"CCOc1cccc(NC(=O)c2nc(C3CC3)cnc2Nc2cncnc2)c1 [Roche-Dataset for PDE10A, Compound 602]"
13,6.39,"O=C(Nc1ccn(CC(F)(F)F)n1)c1nc(C2CC2)ccc1Nc1cncnc1 [Roche-Dataset for PDE10A, Compound 603]"
14,3.28,"Cc1ncc(C2CC2)c2nc(CCc3nc(N4CCCC4)nn3C)nn12 [Roche-Dataset for PDE10A, Compound 605]"
15,2350,"O=C(Nc1ccn2nc(-c3ccccc3)nc2c1)c1ccno1 [Roche-Dataset for PDE10A, Compound 606]"
16,1.93,"O=C(Nc1cnoc1-c1ccccc1)c1nc(C2CC2)ccc1Nc1cncnc1 [Roche-Dataset for PDE10A, Compound 607]"
17,1380,"COc1ccc(Cl)cc1C(=O)Nc1cc(-c2ccccn2)nn1C [Roche-Dataset for PDE10A, Compound 608]"
18,1590,"Cc1ncc(C)n2nc(CCc3nc(C(=O)N(C)C)cn3C)nc12 [Roche-Dataset for PDE10A, Compound 609]"
19,52,"Cc1ccc(Nc2cncnc2)c(C(=O)Nc2ccn([C@]34C[C@H]5C[C@H](C[C@H](C5)C3)C4)n2)n1 [Roche-Dataset for PDE10A, Compound 610]"
20,1470,"CN(C)c1nc(/C=C/c2nc(Br)cs2)nc2ccc(Cl)cc12 [Roche-Dataset for PDE10A, Compound 612]"
